Measurements as given in ChEMBL document CHEMBL5357064 (ACS Med Chem Lett, 2024).

Experiments:
[1] = target: T1, Small conductance calcium-activated potassium channel protein 2 (Homo sapiens, UniProt Q9H2S1); experiment: Displacement of [125I]apamin from SK2 (unknown origin) expressed in HEK293 cells assessed as inhibition constant incubated for 1 hr by liquid scintillation counting analysis; format: cell-based
[2] = target: T1, Small conductance calcium-activated potassium channel protein 2; experiment: Displacement of [125I]apamin from human SK2 expressed in HEK293 cells assessed as inhibition constant incubated for 1 hr by liquid scintillation counting analysis; format: cell-based
[3] = target: Small conductance calcium-activated potassium channel protein 3 (Homo sapiens, UniProt Q9UGI6); experiment: Displacement of [125I]apamin from human SK3 expressed in HEK293 cells assessed as inhibition constant incubated for 1 hr by liquid scintillation counting analysis; format: cell-based
Homo sapiens = species: Homo sapiens; experiment: Selectivity ratio of Ki for human SK3 to Ki for human SK2

T1 sequence (Q9H2S1 whole entry): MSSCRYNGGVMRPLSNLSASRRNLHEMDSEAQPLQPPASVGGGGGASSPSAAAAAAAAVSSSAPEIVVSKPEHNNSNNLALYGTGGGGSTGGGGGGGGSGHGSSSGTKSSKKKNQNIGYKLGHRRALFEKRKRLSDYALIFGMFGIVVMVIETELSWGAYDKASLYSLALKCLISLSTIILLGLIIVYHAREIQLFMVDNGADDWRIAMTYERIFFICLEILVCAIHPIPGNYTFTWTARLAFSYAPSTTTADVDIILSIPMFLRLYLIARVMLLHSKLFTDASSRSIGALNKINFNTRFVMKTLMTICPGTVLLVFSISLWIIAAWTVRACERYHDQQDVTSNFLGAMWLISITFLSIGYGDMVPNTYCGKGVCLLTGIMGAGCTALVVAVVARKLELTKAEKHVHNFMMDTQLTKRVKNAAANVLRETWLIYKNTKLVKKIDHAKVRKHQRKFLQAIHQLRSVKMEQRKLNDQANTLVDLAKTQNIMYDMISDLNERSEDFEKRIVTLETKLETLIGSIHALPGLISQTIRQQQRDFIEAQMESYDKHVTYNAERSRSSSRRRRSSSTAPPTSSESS
Small conductance calcium-activated potassium channel protein 3, sequence (Q9UGI6 whole entry): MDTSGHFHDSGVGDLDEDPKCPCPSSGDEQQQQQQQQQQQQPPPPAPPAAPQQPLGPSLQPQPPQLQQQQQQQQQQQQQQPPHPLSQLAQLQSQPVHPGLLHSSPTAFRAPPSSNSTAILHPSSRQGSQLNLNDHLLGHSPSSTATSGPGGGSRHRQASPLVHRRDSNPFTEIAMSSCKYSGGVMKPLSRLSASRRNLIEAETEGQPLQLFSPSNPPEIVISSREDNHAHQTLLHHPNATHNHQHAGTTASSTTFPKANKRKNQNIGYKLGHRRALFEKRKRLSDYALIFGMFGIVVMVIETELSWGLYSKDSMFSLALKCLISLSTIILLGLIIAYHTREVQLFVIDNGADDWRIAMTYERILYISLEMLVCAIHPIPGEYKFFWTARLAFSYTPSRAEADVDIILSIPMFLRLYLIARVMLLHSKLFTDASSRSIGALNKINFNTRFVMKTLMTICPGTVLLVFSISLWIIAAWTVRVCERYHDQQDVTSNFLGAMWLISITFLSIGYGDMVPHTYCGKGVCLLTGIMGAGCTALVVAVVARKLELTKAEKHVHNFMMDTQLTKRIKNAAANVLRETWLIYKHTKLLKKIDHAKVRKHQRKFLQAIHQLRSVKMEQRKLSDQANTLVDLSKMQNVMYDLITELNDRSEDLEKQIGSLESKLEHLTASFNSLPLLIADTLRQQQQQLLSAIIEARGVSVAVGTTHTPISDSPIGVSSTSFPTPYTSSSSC

| SMILES | Ki [1] [µM] | Ki [2] [µM] | Ki [3] [µM] | Ratio Ki (Homo sapiens) |
| --- | --- | --- | --- | --- |
| COc1cc2c(cc1OC)[C@H](CCC[C@H]1c3cc(OC)c(OC)cc3CCN1C)N(C)CC2 | 0.277 | – | – | – |
| COc1cc2c3cc1Oc1c(OC)c(OC)cc4c1[C@@H](Cc1ccc(O)c(c1)Oc1ccc(cc1)C[C@@H]3N(C)CC2)N(C)CC4 [BERBAMINE] | – | 0.284 | 0.679 | 2.17 |
